Laboratory results: ChEMBL document CHEMBL5576107, “Wajeepeptin, a Cytotoxic and Antitrypanosomal Cyclic Depsipeptide from a Marine Moorena sp. Cyanobacterium” (J Nat Prod, 2024)
Active and inactive are the calls of the source. The calls are words filed in the database; no cut-off is given here. Starred links: 1 amine or outer side, 2 acyl side, 3 side chain; linkers in the order of their positions; H or OH if unused. Non-standard residues stand in square brackets, D forms with d. Residues, ends and D or L forms follow the SMILES beside them. X1 = CC[C@@H](N[*:1])[C@H](C)C(=O)[*:2]; NMeI = CC[C@H](C)[C@H](NC)C(=O)O; NMeV = CN[C@H](C(=O)O)C(C)C; Hiv = CC(C)[C@H](O)C(=O)O; NMeA = CN[C@@H](C)C(=O)O; Lac = C[C@H](O)C(=O)O

What was measured:
[1] = test system: Plasmodium falciparum; test: Antimalarial activity against synchronized asexual blood stage Plasmodium falciparum 3D7 at 10 uM measured after 72 hrs by LDH assay; assay type: functional, organism-based
[2] = test system: Trypanosoma brucei rhodesiense; test: Antitrypanosomal activity against Trypanosoma brucei rhodesiense IL-1501 measured after 69 hrs by alamar blue staining based microplate fluorescence assay; assay type: functional, organism-based; conditions: IL-1501, 69 h
[3] = test system: HeLa; test: Antiproliferative activity against human HeLa cells measured after 72 hrs by MTT assay; assay type: functional, cell-based

Row | IC50 [2] [nM] | IC50 [3] [nM] | Compound | Activity [1]
1 | 730 | 3700 | CC[C@H](C)[C@H]1C(=O)N[C@@H](C)C(=O)N(C)[C@@H](C(C)C)C(=O)N(C)[C@@H](C)C(=O)N[C@@H](C(C)C)C(=O)N(C)[C@@H](C(C)C)C(=O)O[C@@H](C)C(=O)N[C@H](CC)[C@H](C)C(=O)O[C@@H](C(C)C)C(=O)N1C (cyclo(A[NMeV][NMeA]V[NMeV][Lac][X1][Hiv][NMeI])) | inactive
2 | 6.3 |  | N=C(N)c1ccc(OCCCCCOc2ccc(C(=N)N)cc2)cc1 [PENTAMIDINE] | 
